Laboratory results from US20240384268A1, “Oligonucleotides” (Hudson Institute of Medical Research, priority 2021, published 2024).
In the oligonucleotide strings, read from the 5' end, every base follows the letter of its sugar. An asterisk marks phosphorothioate; unmarked linkages are phosphodiester. Other units and linkages are bracketed, terminal groups are in braces. A string of capitals states the bases alone. d = 2'-deoxy (DNA); m = 2'-O-methyl

Biological target: cGAS (Homo sapiens, UniProt Q8N884)
Assay: ISD70-driven IP-10 (and IFN-β) production in THP-1 cells, ELISA
Assay type: cell-based
Parameters: endogenous in cells; host or cells: THP-1 (undifferentiated)
Conditions: for cGAS 100 nM (averaged IP-10 level relative to ISD70 condition): ASO 100 nM, relative to ISD70 only, given as fraction; for cGAS-100 nM: averaged IP-10 levels relative to ISD70: 100 nM ASO overnight, then ISD70 2.5 μg/ml 7-8 h, percentage of ISD70 only; for inhibition of cGAS in THP-1, LNA and MOE ASO validation (in words): 300 nM LNA or 200 nM MOE ASO ~30 min, ISD70 overnight (FIG. 21, 23)

Sequence of cGAS (Q8N884 whole entry): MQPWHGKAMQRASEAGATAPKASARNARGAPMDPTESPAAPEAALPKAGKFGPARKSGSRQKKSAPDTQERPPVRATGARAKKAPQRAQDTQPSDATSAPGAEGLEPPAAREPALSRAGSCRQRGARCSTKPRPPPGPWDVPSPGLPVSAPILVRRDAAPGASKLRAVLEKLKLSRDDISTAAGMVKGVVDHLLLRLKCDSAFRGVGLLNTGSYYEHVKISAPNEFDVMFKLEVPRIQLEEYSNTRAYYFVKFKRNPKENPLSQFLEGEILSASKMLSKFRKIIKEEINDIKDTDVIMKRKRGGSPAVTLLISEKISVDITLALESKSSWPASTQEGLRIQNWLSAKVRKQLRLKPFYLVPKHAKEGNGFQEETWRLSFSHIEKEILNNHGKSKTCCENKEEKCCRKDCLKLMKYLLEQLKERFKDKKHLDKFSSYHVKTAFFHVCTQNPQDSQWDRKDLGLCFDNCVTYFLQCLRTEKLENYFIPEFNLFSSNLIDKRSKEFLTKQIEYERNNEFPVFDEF

## CGGCCTCGGAAGCTCT (antisense; LNA-modified, pattern not given here) [MB21D1-168 LNA V1]
  cGAS 100 nM (averaged IP-10 level relative to ISD70 condition): 0.617

## GCACTTCAGTCTGAGC (antisense; LNA-modified, pattern not given here) [MB21D1-719 LNA KL]
  cGAS 100 nM (averaged IP-10 level relative to ISD70 condition): 0.797

## AGGTCTTGGCTTCGTG (antisense; LNA-modified, pattern not given here) [MB21D1-524 LNA V1]
  cGAS 100 nM (averaged IP-10 level relative to ISD70 condition): 0.947

## ATGGCCTCCCATCTCC (antisense; LNA-modified, pattern not given here) [HPRT LNA-330 V1]
  cGAS 100 nM (averaged IP-10 level relative to ISD70 condition): 0.475

## ACGTTCAGTCCTGTCC (antisense; LNA-modified, pattern not given here) [HPRT LNA-294 V1]
  cGAS 100 nM (averaged IP-10 level relative to ISD70 condition): 0.880

## GTCAAGGGCATATCCT (antisense; LNA-modified, pattern not given here) [HPRT LNA-732 KL]
  cGAS 100 nM (averaged IP-10 level relative to ISD70 condition): 0.636

## TTCAGGCGCTGCCTTG (antisense; LNA-modified, pattern not given here) [CAMSAP1-2709 LNA V1]
  cGAS 100 nM (averaged IP-10 level relative to ISD70 condition): 0.709

## AGGACTCCAGATGTTT (antisense; LNA-modified, pattern not given here) [HPRT LNA pos cont]
  cGAS 100 nM (averaged IP-10 level relative to ISD70 condition): 0.632

## GATGGCCTCCCATCTC (antisense; LNA-modified, pattern not given here) [HPRT LNA-331 V1]
  cGAS 100 nM (averaged IP-10 level relative to ISD70 condition): 0.632

## TCCATACCCAAGGCAT (antisense; LNA-modified, pattern not given here) [CTNN2B-2446 LNA V1]
  cGAS 100 nM (averaged IP-10 level relative to ISD70 condition): 0.589

## TGACTGTCTTGAGGGT (antisense; LNA-modified, pattern not given here) [MB21D1-1483 LNA KL]
  cGAS 100 nM (averaged IP-10 level relative to ISD70 condition): 0.747

## GGTCATTACAATAGCT (antisense; LNA-modified, pattern not given here) [HPRT LNA-475 KL]
  cGAS 100 nM (averaged IP-10 level relative to ISD70 condition): 0.751

## mA*mG*mU*mG*mG*C*A*C*A*T*A*C*C*A*C*mA*mC*mC*mC*mU (AGUGGCACATACCACACCCU; antisense; sugars from the 5' end m5 d10 m5, all phosphorothioate, methylation of C not given here) [[CDKN2B-AS1]495]
THP-1
  cGAS-100 nM: averaged IP-10 levels relative to ISD70: 59.69%

## CCACTTGGCAGACCAT (antisense; LNA-modified, pattern not given here) [CTNN2B-1575 LNA V1]
  cGAS 100 nM (averaged IP-10 level relative to ISD70 condition): 0.532

## ACTTCGTGGGGTCCTT (antisense; LNA-modified, pattern not given here) [HPRT LNA-663 V1]
  cGAS 100 nM (averaged IP-10 level relative to ISD70 condition): 0.937

## CCAGCAGGTCAGCAAA (antisense; LNA-modified, pattern not given here) [HPRT LNA-388 KL]
  cGAS 100 nM (averaged IP-10 level relative to ISD70 condition): 0.552

## GACTATACGCGCAATA (antisense; LNA-modified, pattern not given here) [NC5 LNA PS 3-10-3]
  cGAS 100 nM (averaged IP-10 level relative to ISD70 condition): 0.991

## CCACATCCTGTGGCTC (antisense; LNA-modified, pattern not given here) [CAMSAP1-2906 LNA V1]
  cGAS 100 nM (averaged IP-10 level relative to ISD70 condition): 0.999

## TGTCTGGAAGCTTCCT (antisense; LNA-modified, pattern not given here) [CTNN2B-808 LNA V1]
  cGAS 100 nM (averaged IP-10 level relative to ISD70 condition): 0.617

## mU*mA*mU*mU*mU*C*C*A*C*A*T*G*C*C*C*mA*mG*mU*mG*mU (mU*mA*mU*mU*mU*dC*dC*dA*dC*dA*dT*dG*dC*dC*dC*mA*mG*mU*mG*mU; antisense) [[CDKN2B-AS1]627]
THP-1
  cGAS-100 nM: averaged IP-10 levels relative to ISD70: 80.99%

## CTTGGCTTCGTGGAGC (antisense; LNA-modified, pattern not given here) [MB21D1-520 LNA V1]
  cGAS 100 nM (averaged IP-10 level relative to ISD70 condition): 0.666

## GTCTTCATCGGCCCTG (antisense; LNA-modified, pattern not given here) [CAMSAP1-2113 LNA V1]
  cGAS 100 nM (averaged IP-10 level relative to ISD70 condition): 0.809

## AGGCCCTTCGCACTTC (antisense; LNA-modified, pattern not given here) [EGFR-1225 LNA V1]
  cGAS 100 nM (averaged IP-10 level relative to ISD70 condition): 0.629

## TCTTCATCGGCCCTGC (antisense; LNA-modified, pattern not given here) [CAMSAP1-2112 LNA V1]
  cGAS 100 nM (averaged IP-10 level relative to ISD70 condition): 0.548

## ACACTTCGTGGGGTCCTTTT (antisense; 2'-MOE modified, pattern not given here) [HPRT-663 MOE]
MOE-modified ASO at 100 nM, averaged IP-10 levels relative to ISD70 condition
  cGAS 100 nM: 0.623

## GGTCTTGGCTTCGTGG (antisense; LNA-modified, pattern not given here) [MB21D1-523 LNA V1]
  cGAS 100 nM (averaged IP-10 level relative to ISD70 condition): 0.648

## TCCTTGCACGTGGCTT (antisense; LNA-modified, pattern not given here) [EGFR-1014 LNA V1]
  cGAS 100 nM (averaged IP-10 level relative to ISD70 condition): 0.591

## AGTGTTGAGATACTCG (antisense; LNA-modified, pattern not given here) [EGFR-3652 LNA KL]
  cGAS 100 nM (averaged IP-10 level relative to ISD70 condition): 0.692

## mA*mA*mG*mC*mA*G*T*C*T*C*C*A*T*G*T*mC*mC*mC*mA*mG (mA*mA*mG*mC*mA*dG*dT*dC*dT*dC*dC*dA*dT*dG*dT*mC*mC*mC*mA*mG; antisense) [[CDKN2B-AS1]2236]
THP-1
  cGAS-100 nM: averaged IP-10 levels relative to ISD70: 107.34%

## TACTTTCCGAGGTGTC (antisense; LNA-modified, pattern not given here) [CAMSAP1-1739 LNA KL]
  cGAS 100 nM (averaged IP-10 level relative to ISD70 condition): 0.638

## TGGTCCACAACCCCTT (antisense; LNA-modified, pattern not given here) [MB21D1-697 LNA V1]
  cGAS 100 nM (averaged IP-10 level relative to ISD70 condition): 0.935

## mG*mU*mG*mU*mC*C*T*T*C*A*T*G*C*T*T*mU*mG*mG*mA*mU (GUGUCCTTCATGCTTUGGAU; antisense; sugars from the 5' end m5 d10 m5, all phosphorothioate, methylation of C not given here) [[CDKN2B-AS1]1415]
THP-1
  cGAS-100 nM: averaged IP-10 levels relative to ISD70: 58.18%

## CGCTTTTCTGTCTGGT (antisense; LNA-modified, pattern not given here) [CTNN2B-311 LNA KL]
  cGAS 100 nM (averaged IP-10 level relative to ISD70 condition): 0.475
THP-1
  inhibition of cGAS in THP-1, LNA and MOE ASO validation (in words): potently inhibited signalling

## mG*mC*mA*mG*mU*C*T*C*C*A*T*G*T*C*C*mC*mA*mG*mG*mC (GCAGUCTCCATGTCCCAGGC; antisense; sugars from the 5' end m5 d10 m5, all phosphorothioate, methylation of C not given here) [[CDKN2B-AS1]2234]
THP-1
  cGAS-100 nM: averaged IP-10 levels relative to ISD70: 10.02%
THP-1, 2′OMe or PS oligos, 100-250 nM, pre-treatment as in figure legends, ISD70 2.5 μg/ml
  inhibition of ISD70-driven IP-10 production (in words): robustly inhibited ISD70-dependent IP-10 production

## CATCCACCACGTCGTC (antisense; LNA-modified, pattern not given here) [EGFR-3266 LNA V1]
  cGAS 100 nM (averaged IP-10 level relative to ISD70 condition): 0.902

## mC*mA*mG*mU*mG*T*T*T*T*T*A*A*T*T*T*mU*mG*mU*mA*mG (mC*mA*mG*mU*mG*dT*dT*dT*dT*dT*dA*dA*dT*dT*dT*mU*mG*mU*mA*mG; antisense) [[CDKN2B-AS1]613]
THP-1
  cGAS-100 nM: averaged IP-10 levels relative to ISD70: 60.94%

## GGCTCGGCTTGCCTAC (antisense; LNA-modified, pattern not given here) [CAMSAP1-5594 LNA V1]
  cGAS 100 nM (averaged IP-10 level relative to ISD70 condition): 0.761

## AGATTTCAGAGCAGCT (antisense; LNA-modified, pattern not given here) [EGFR-4885 LNA KL]
  cGAS 100 nM (averaged IP-10 level relative to ISD70 condition): 0.625

## TGACAAAGATTCACTG (antisense; LNA-modified, pattern not given here) [HPRT LNA-1353 KL]
  cGAS 100 nM (averaged IP-10 level relative to ISD70 condition): 0.887

## ATGTGATGGCCTCCCA (antisense; LNA-modified, pattern not given here) [HPRT LNA-335 V1]
  cGAS 100 nM (averaged IP-10 level relative to ISD70 condition): 0.606

## AATCCAACAAAGTCTG (antisense; LNA-modified, pattern not given here) [HPRT LNA-692 KL]
  cGAS 100 nM (averaged IP-10 level relative to ISD70 condition): 0.649

## TCGTGGGGTCCTTTTC (antisense; LNA-modified, pattern not given here) [HPRT LNA-660 V1]
  cGAS 100 nM (averaged IP-10 level relative to ISD70 condition): 0.729

## CTTGAAGCATCGTATC (antisense; LNA-modified, pattern not given here) [CTNN2B-3648 LNA KL]
  cGAS 100 nM (averaged IP-10 level relative to ISD70 condition): 0.373
THP-1
  inhibition of cGAS in THP-1, LNA and MOE ASO validation (in words): failed to significantly inhibit cGAS

## GAGGTCTTGGCTTCGT (antisense; LNA-modified, pattern not given here) [MB21D1-525 LNA V1]
  cGAS 100 nM (averaged IP-10 level relative to ISD70 condition): 0.508

## mA*mG*mU*mC*mU*C*C*A*T*G*T*C*C*C*A*mG*mG*mC*mC*mU (mA*mG*mU*mC*mU*dC*dC*dA*dT*dG*dT*dC*dC*dC*dA*mG*mG*mC*mC*mU; antisense) [[CDKN2B-AS1]2232]
THP-1
  cGAS-100 nM: averaged IP-10 levels relative to ISD70: 88.13%
